# Reference: patent US20160345553A1, “TRANSGENIC MOUSE MODELS FOR MC4R” (UNIVERSITE DE MONTREAL, priority 2012, published 2016)
# What was measured:
# [1] = system: hMC4R (R165W) knock-in mice; test: In vivo test of DCPMP on knock-in mouse model carrying human mutant form of MC4R (food intake, weight loss); details: 30 mg per kg i.p. one dose daily for 9 days
# Method: (§1) Mice were intraperitoneally injected one dose daily with vehicle or DCPMP at 30 mg per kg one hour before light off, for 9 days. Data are the average daily food intake (A, B. C), or the mean of the total body weight loss [total body weight before treatment—total body weight after 9 days treatment] (D), for each experimental group, Data are expressed as Mean±SEM. Numbers of animal per genotype are indicated in brackets.
# (§2) Mice were intraperitoneally injected one dose daily with vehicle or N-((2R)-3(2,4-dichlorophenyl)-1-(4-(2-((1-methoxypropan-2-ylamino)methyl)phenyl)piperazin-1-yl)-1-oxopropan-2-yl)propionamide (DCPMP) at 30 mg per kg one hour before light off, for 9 days.
# (§3) Animals were individually housed for 4 days prior to starting experiments. […] All animals were weighed prior to compound injection, and doses were normalized to individual animal body weight. Mice were intraperitoneally injected one dose daily with vehicle (1% Tween 80) or DCPMP at 30 mg per kg one hour before lights off (at 5:00 PM), for 9 days. Weight was monitored every 3 days during treatment and after stopping treatment. Food intake was measured during the recovery time for 7 days. Data are the average daily food intake or the mean of total body weight loss [total body weight before treatment—total body weight after 9 days treatment].
# [2] = system: non-transgenic littermate mice; test: In vivo test of DCPMP in non-transgenic littermate mice (food intake); set-up: species or system mouse; details: at the beginning of DCPMP treatment, 30 mg per kg i.p. daily
# Method: as §1, §2, §3
compound,measurement,setting,value
"CCC(=O)N[C@H](Cc1ccc(Cl)cc1Cl)C(=O)N1CCN(c2ccccc2CNC(C)COC)CC1 (stereo partly drawn) [DCPMP, N-((2R)-3(2,4-dichlorophenyl)-1-(4-(2-((1-methoxypropan-2-ylamino)methyl)phenyl)piperazin-1-yl)-1-oxopropan-2-yl)propionamide]",food intake,[1]; hMC4R (R165W) male mice,reducing food intake
same,"weight loss, % of total weight",[1]; initially overweight heterozygous hMC4R (R165W) mice,up to 13%
same,"weight loss, % of total weight",[1]; initially overweight homozygous hMC4R (R165W) mice,≤ 15%
same,food consumption,[2],slightly reduced
